Active and inactive are the calls of the source.
Legend:
[1] = molecular target: Induced myeloid leukemia cell differentiation protein Mcl-1 (Homo sapiens, UniProt Q07820); assay type: functional
[2] = molecular target: Eukaryotic translation initiation factor 4E (Mus musculus, UniProt P63073); assay: blockers of eIF4G binding by eIF4E – biochemical, TR-FRET, dose response (AID 855); assay type: functional;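 further: potency for disrupting eIF4E binding to eIF4GI seen as loss of FRET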
[3] = molecular target: T1, Glutathione-S-transferase (Schistosoma japonicum, UniProt Q26513); assay: GST-antibody interaction or FRET quenching – biochemical, TR-FRET, artefact control for Vif-APOBEC3G degradation inhibitor project, dose response (AID 1117362); assay type: functional
T1 sequence (Q26513 whole entry): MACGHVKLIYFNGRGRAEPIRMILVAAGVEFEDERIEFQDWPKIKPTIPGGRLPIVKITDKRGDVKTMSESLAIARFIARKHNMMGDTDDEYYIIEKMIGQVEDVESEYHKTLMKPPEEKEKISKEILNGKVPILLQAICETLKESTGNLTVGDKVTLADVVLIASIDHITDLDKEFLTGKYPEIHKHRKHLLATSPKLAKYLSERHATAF

[4] = HEK-293T viability loss after treatment – luminescence, T-cell screen hits, cytotoxicity control for TCR NF-kB inhibitor project, dose response (AID 489026); assay type: functional, cell-based;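 further: cells exposed to compound about 14 hours before the viability readout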
[5] = molecular target: T2, Microphthalmia-associated transcription factor (Homo sapiens, UniProt O75030); assay: reducers of TRPM1 reporter luminescence, concentration series – cell-based, SK-MEL-5, cherry-picked, set 3, MITF inhibitor project, dose response (AID 493073); assay type: functional;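 further: SK-MEL-5 melanoma cells with luciferase driven by the MITF target TRPM1 promoter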
T2 sequence (O75030 whole entry): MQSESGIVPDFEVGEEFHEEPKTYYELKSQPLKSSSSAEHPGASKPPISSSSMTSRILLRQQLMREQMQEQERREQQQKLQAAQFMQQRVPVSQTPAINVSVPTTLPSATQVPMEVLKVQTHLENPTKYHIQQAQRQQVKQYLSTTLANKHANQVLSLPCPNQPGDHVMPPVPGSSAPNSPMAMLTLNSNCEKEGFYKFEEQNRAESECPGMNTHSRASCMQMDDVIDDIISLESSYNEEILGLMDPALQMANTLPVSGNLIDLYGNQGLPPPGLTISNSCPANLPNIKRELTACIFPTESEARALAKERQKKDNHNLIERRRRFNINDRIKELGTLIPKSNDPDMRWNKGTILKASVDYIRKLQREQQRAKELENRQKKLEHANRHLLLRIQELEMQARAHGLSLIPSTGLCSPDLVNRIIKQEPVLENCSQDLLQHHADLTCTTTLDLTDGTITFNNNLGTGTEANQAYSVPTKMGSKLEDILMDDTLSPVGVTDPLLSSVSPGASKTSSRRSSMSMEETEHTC

[6] = P. falciparum Dd2 growth inhibitors, dose response, SYBR Green, cherry-picked samples (AID 1159567); assay type: functional, cell-based
H9c2 = assay: cells; assay type: functional, cell-based; settings: Rattus norvegicus, H9c2, Myocardium;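 further: confirmatory concentration-response retest of ultra-high-throughput screening hits for modulation of myocardial damage; cell death induced by hydrogen peroxide oxidative stress; compound pretreatment for 60 min then peroxide exposure for 2 h; potency is for protecting the cells against peroxide damage rather than for killing them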
CHO-K1 = assay: Counterscreen for antagonists of the orexin 1 receptor (OX1R; HCRTR1): Homogeneous time resolved fluorescence (HTRF)-based cell-based dose response assay to identify antagonists of the parental CHO-K1 cell line. [Related pubchem assays (depositor defined):AID434989, AID435008, AID463079, AID485270, AID492963, AID492964, AID492965, AID493232, AID504699, AID504701]; assay type: functional; settings: Cricetulus griseus;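 further: potency for inhibition of ATP-stimulated IP1 production as antagonists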
[7] = Counterscreen for antagonists of the orexin 1 receptor (OX1R; HCRTR1): Fluorescence-based cell-based high throughput dose response assay to identify antagonists of the parental CHO cell line. [Related pubchem assays (depositor defined):AID434989, AID435008, AID463079, AID485270, AID492963, AID492964, AID492965, AID493232, AID504699, AID504701]; assay type: functional
[8] = molecular target: T3, Orexin/Hypocretin receptor type 1 (Homo sapiens, UniProt O43613); assay: Homogeneous Time Resolved Fluorescence (HTRF)-based cell-based high throughput dose response assay for antagonists of the orexin 1 receptor (OX1R; HCRTR1). [Related pubchem assays (depositor defined):AID434989, AID435008, AID463079, AID485270, AID492963, AID492964, AID492965, AID493232, AID504717, AID504718]; assay type: functional
T3 sequence (O43613 whole entry): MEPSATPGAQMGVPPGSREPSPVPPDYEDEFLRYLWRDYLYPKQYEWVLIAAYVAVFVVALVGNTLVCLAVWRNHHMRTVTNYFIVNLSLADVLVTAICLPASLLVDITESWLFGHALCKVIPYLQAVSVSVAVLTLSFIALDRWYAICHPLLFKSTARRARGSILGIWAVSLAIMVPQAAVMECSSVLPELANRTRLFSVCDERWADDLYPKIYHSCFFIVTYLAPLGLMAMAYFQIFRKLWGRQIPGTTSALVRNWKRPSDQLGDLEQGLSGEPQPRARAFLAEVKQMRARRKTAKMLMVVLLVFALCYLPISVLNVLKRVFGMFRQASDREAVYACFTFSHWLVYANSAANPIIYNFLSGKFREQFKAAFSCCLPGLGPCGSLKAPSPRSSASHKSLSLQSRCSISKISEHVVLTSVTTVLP

[9] = molecular target: T3, Orexin/Hypocretin receptor type 1; assay: Fluorescence-based cell-based high throughput dose response assay for antagonists of the orexin 1 receptor (OX1R; HCRTR1). [Related pubchem assays (depositor defined):AID434989, AID435008, AID463079, AID485270, AID492963, AID492964, AID492965, AID493232, AID504717, AID504718]; assay type: functional
Nonstructural protein 1 = Nonstructural protein 1 (Influenza A virus, UniProt Q194T2); assay type: functional, Influenza A virus (A/California/07/2009(H1N1))
Protein skinhead-1 = molecular target: T4, Protein skinhead-1 (Caenorhabditis elegans, UniProt P34707); assay type: functional
T4 sequence (P34707 whole entry): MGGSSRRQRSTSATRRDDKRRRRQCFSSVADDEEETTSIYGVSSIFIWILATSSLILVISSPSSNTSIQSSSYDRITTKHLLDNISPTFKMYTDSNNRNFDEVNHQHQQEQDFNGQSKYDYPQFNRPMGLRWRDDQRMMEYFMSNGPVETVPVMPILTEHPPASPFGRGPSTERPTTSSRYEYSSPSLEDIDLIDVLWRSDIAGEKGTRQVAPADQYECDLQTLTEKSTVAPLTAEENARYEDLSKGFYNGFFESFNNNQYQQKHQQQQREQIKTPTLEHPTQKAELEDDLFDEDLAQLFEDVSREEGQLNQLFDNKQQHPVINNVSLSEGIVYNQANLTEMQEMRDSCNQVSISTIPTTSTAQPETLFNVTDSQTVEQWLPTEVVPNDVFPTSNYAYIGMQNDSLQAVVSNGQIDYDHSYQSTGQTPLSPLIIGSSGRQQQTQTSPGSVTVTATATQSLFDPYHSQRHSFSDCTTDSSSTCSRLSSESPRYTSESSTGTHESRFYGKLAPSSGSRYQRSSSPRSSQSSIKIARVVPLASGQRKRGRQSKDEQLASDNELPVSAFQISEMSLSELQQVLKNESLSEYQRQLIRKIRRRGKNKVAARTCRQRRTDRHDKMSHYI

[10] = luciferase reporter signal suppression in cells – H4 neuroglioma cells, luminescence, dose response (AID 1990); assay type: functional, cell-based
[11] = Luminescence Cell-Based Dose Response HTS to Identify Inhibitors of 5'UTR Stem-Loop Driven Prion Protein mRNA Translation in H4 Neuroglioblastoma Cells. [Related pubchem assays: 1827 (Project Summary), 1813 (Primary HTS)]; assay type: functional
[12] = alpha-synuclein stem-loop luciferase translation blockers – H4 neuroglioma cells, luminescence, confirmation (AID 1988); assay type: functional, cell-based
[13] = HPDE-C7 pancreatic duct cell viability loss – fluorescence, HTS (AID 430); assay type: functional, cell-based; settings: Homo sapiens
[14] = viability loss of HPDE-C7K cells – cell-based, fluorescence, HTS, primary screen (AID 431); assay type: functional; settings: Homo sapiens
Protein Tat = molecular target: T5, Protein Tat (Human immunodeficiency virus type 1 group M subtype B (isolate HXB2)(HIV-1), UniProt P04608); assay type: functional;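 further: tat binding to TAR RNA read out by fluorescence polarization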
T5 sequence (P04608 whole entry): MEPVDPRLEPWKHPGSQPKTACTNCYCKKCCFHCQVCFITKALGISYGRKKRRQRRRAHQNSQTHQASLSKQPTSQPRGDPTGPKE

[15] = viability loss in THP-1 monocytes – THP-1 cells, cytotoxicity control for Vif-APOBEC3G degradation inhibitor project, dose response (AID 1117359); assay type: functional; settings: THP-1
[16] = molecular target: T6, RNA-binding protein pos-1 (Caenorhabditis elegans, UniProt G5EF15); assay: disruptors of C. elegans POS-1 RNA interaction – biochemical, fluorescence polarization, dose response (AID 1964);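 further: purified POS-1 fused to maltose binding protein made in E. coli; potency of compounds blocking POS-1 binding to fluorescent RNA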
T6 sequence (G5EF15 whole entry): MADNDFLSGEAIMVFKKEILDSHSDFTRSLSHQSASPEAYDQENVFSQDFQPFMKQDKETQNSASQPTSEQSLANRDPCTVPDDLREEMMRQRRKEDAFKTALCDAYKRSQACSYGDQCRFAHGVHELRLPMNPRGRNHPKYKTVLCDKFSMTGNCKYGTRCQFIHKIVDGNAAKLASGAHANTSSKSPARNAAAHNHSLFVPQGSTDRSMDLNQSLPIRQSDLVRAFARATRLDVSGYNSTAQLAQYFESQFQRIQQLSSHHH

[17] = tested on: Streptococcus sp. 'group A'; assay: Streptococcus pyogenes SK(-)GAS viability under kanamycin – luminescence, BacTiterGlo, confirmation, counter-screen for streptokinase expression inhibitor project, dose response (AID 1900); assay type: functional, organism-based
[18] = molecular target: T7, Zinc finger protein mex-5 (Caenorhabditis elegans, UniProt Q9XUB2); assay: potency of MEX-5 RNA-binding blockers – biochemical, C. elegans, fluorescence polarization, dose response (AID 1960)
T7 sequence (Q9XUB2 whole entry): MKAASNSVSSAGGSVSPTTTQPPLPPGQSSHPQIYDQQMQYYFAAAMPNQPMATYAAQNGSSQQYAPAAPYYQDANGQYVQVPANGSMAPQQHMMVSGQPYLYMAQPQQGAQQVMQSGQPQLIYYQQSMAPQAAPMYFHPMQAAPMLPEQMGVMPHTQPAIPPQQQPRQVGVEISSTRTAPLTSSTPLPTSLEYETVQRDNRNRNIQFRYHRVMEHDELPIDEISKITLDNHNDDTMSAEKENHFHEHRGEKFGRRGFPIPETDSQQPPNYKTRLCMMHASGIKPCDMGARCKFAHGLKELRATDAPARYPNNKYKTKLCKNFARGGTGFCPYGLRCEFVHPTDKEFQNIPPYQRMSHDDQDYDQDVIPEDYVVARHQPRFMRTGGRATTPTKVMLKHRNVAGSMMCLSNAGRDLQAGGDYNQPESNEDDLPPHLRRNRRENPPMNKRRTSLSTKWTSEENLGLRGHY

Streptococcus = assay: GAS UMAA2166 growth inhibition – luminescence, BacTiterGlo, counter-screen for streptokinase expression inhibitor project, dose response (AID 1915); assay type: functional, organism-based;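 further: potency for reduction of bacterial viability or growth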
A-375 = assay: MITF: Counter assay: A375 proliferation Measured in Cell-Based System Using Plate Reader - 2084-03_Inhibitor_Dose_DryPowder_Activity. [Related pubchem assays (depositor defined):AID488944]; assay type: functional; settings: Homo sapiens

Sequence of Nonstructural protein 1 (Q194T2 whole entry): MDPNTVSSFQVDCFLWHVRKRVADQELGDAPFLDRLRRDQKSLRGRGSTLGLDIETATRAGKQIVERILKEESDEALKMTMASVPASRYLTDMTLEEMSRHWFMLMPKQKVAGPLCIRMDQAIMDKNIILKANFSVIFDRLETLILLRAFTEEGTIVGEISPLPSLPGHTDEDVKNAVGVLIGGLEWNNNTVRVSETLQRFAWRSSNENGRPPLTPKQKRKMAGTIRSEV
Sequence of Induced myeloid leukemia cell differentiation protein Mcl-1 (Q07820 whole entry): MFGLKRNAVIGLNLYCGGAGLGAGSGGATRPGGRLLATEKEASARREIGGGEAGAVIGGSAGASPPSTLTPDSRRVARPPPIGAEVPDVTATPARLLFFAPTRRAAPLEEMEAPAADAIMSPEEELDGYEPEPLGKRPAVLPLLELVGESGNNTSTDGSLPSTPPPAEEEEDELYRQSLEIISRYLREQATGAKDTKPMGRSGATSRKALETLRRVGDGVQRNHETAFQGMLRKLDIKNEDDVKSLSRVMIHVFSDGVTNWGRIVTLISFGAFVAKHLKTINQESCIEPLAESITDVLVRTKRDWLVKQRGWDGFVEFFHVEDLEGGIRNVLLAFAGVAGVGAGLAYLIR
Sequence of Eukaryotic translation initiation factor 4E (P63073 whole entry): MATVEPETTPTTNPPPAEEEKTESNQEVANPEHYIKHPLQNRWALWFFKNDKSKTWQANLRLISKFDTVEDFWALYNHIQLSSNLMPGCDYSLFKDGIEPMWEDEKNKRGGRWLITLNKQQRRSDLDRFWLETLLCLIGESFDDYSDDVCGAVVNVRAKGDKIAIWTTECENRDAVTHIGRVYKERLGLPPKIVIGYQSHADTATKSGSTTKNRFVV

Compound: COC(=O)CSc1ncnc2c1sc1nc(-c3ccco3)c3c(c12)CC(C)(C)OC3
- IC50 [1]: 4.15 µM (active)

Compound: O=C(COc1ccccc1Cl)c1ccc[nH]1
- IC50 [2]: 50 µM (inactive)
- IC50 [3]: > 100 µM (active)

Compound: O=C(Nc1ccc(Cl)c(S(=O)(=O)N2CCOCC2)c1)c1ccc(OCC2CCCO2)cc1 (stereo unspecified)
- IC50 [4]: 16.9 µM (active)
- AC50 [5]: 3.26 µM (active)

Compound: CC(C)(C)[S@+]([O-])N1Cc2cc(C(=O)N[C@@H]3CCN(Cc4ccccc4)C3)nc(-c3cccc(-c4ccncc4)c3)c2[C@@H]1CCO
- AC50 [6]: 4.68 µM (active)

Compound: CCOc1ccc(NC(=O)c2cc3c(C)nc4ccccc4c3o2)cc1
- IC50 [4]: > 80 µM (inactive)
- IC50 (H9c2): > 79 µM (inactive)

Compound: O=C1N[C@@H](c2ccccc2)COC(=O)[C@@H](Cc2ccc(F)cc2)C/C=C\C[C@@H]1CC(=O)N(CCO)Cc1ccccc1
- IC50 (CHO-K1): > 66.2 µM (inactive)
- IC50 [7]: > 49.7 µM (inactive)
- IC50 [8]: 12 µM (inactive)
- IC50 [9]: 13.8 µM (inactive)

Compound: COc1ccccc1NC(=O)c1cnc(Nc2ccccc2OC)c2ccccc12
- IC50 [4]: > 80 µM (inactive)

Compound: Cc1ccccc1/C(O)=C(\C#N)N=Nc1c(C)n(C)n(-c2ccccc2)c1=O
- IC50 (Nonstructural protein 1): 10.9 µM (active)

Compound: CCN(CC)c1ccc(C(=S)N2CCN(c3ccccc3)CC2)cc1
- IC50 (Nonstructural protein 1): > 100 µM (active)
- IC50 (Protein skinhead-1): > 100 µM (inactive)

Compound: COc1cc(/C=N/NC(=S)NCCN2CCOCC2)cc(OC)c1O
- IC50 (Nonstructural protein 1): 70.1 µM (active)

Compound: C[C@@H]1CN([C@H](C)CO)C(=O)c2cc(-c3ccc(C#N)cc3)cnc2O[C@H]1CN(C)C(=O)Nc1ccc(C(F)(F)F)cc1
- AC50 [6]: 21.2 µM (active)

Compound: COC(=O)c1ccc(C)c(NS(=O)(=O)c2ccc3c(c2)OCCO3)c1
- EC50 [10]: 8.4 µM (inconclusive)
- EC50 [11]: 9.9 µM (active)
- EC50 [12]: 1.3 µM (active)
- IC50 [4]: > 80 µM (inactive)

Compound: Nc1ccc(N2CCCCCC2)cc1
- EC50 [13]: 13.3 µM (active)
- EC50 [14]: 15.4 µM (active)
- IC50 (Protein Tat): 11.8 µM (inconclusive)
- CC50 [15]: 13.3 µM (active)
- IC50 [3]: 44.5 µM (active)

Compound: Cc1ncc(CO)c(/C=N/NC(=O)c2cc(Br)ccc2O)c1O
- EC50 [16]: > 300 µM (not active)
- EC50 [17]: 1.39 µM (active)
- EC50 [18]: 5.72 µM (active)
- EC50 (Streptococcus): 1.06 µM (active)
- IC50 (Nonstructural protein 1): 11.3 µM (active)

Compound: Oc1c(CN2CCCC2)cc(COCc2ccccc2)c2cccnc12
- IC50 (Nonstructural protein 1): 3.78 µM (active)
- AC50 [5]: 6.15 µM (active)
- AC50 (A-375): 32.7 µM (active)

Compound: CC1CC1C(=O)OCC(=O)Nc1ccc2[nH]c(O)nc2c1 (stereo unspecified)
- IC50 [1]: 5.94 µM (active)
